# Results from patent publication US20020049160A1, “New strategy for drug design” (priority 2000, published 2002).
# Tests used:
# NMDA receptors = target: T1, NMDA receptors (Rattus norvegicus, UniProt P35439); test: NMDA-evoked currents in isolated dorsal horn neurons of control rats, whole-cell patch clamp, with or without PKCM in the pipette; format: cell-based
# T1 construct: Single dorsal horn neurons were isolated from the lamina I and II of the lumbar spinal cord; endogenous in cells; host or cells: acutely dissociated rat lumbar dorsal horn neurons (lamina I/II): control Long-Evans rats or CFA-inflamed Sprague-Dawley rats
# Procedure: Single dorsal horn neurons were isolated from the lamina I and II of the lumbar spinal cord of 13-20 days old Long-Evans rats. After the rat had been anaesthetized with pentobarbitone (0.1 mg/g), the lumbar region of the spinal cord was rapidly removed from the animal and put into an ice-cold, oxygenated dissecting solution. […] Prior to an experiment, neurons from a slice were dissociated by triturating the tissue with a series of fire-polished Pasteur pipettes.
# Electrical recordings: NMDA-receptor mediated currents in normal dorsal horn neurons were examined using the whole-cell patch clamp recording technique at room temperature (20-23° C.). The pipette solution contained (in mM): 120 cesium methanesulphonate, 20 CsCl, 1 CaCl2, 5 BAPTA, 1 MgCl2, 10 HEPES, 2.5 Na2ATP, adjusted to pH 7.2 with CsOH. The external solution contained (mM): NaCl,140; KCl, 4; CaCI2, 2.5; MgCl2, 0.02; HEPES,10; Glucose,10; Sucrose,10; adjusted to pH 7.4 with KOH. […] The resistances of patch pipettes were <20 Mohms. Current recordings were made with an Axopatch-200A patch clamp amplifier (Axon Instruments, Foster City, Calif.). The recorded whole-cell currents were filtered at 2 kHz and sampled at 200 μs per point. The average data are expressed as mean±SEM. Statistical significance of the data was evaluated using Student's t-test or one-way ANOVA. A level of P<0.05 was considered statistically significant.
# [1] = test system: formalin-induced nociceptive responses; details: formalin test, cited from earlier work
# [2] = rabbits; cited from earlier work
# [3] = test system: system L-amino acid transporter; details: cited from earlier work
# [4] = rodents; cited from earlier work
# [5] = test system: N and P/Q subtypes of Ca^2+ channel; details: cited from earlier work
# GABAB receptors = GABAB receptors (Homo sapiens, UniProt Q9UBS5); details: cited from earlier work
# GABAA receptors = details: cited from earlier work
# Chain of GABAB receptors (Q9UBS5 15-961 limits assumed): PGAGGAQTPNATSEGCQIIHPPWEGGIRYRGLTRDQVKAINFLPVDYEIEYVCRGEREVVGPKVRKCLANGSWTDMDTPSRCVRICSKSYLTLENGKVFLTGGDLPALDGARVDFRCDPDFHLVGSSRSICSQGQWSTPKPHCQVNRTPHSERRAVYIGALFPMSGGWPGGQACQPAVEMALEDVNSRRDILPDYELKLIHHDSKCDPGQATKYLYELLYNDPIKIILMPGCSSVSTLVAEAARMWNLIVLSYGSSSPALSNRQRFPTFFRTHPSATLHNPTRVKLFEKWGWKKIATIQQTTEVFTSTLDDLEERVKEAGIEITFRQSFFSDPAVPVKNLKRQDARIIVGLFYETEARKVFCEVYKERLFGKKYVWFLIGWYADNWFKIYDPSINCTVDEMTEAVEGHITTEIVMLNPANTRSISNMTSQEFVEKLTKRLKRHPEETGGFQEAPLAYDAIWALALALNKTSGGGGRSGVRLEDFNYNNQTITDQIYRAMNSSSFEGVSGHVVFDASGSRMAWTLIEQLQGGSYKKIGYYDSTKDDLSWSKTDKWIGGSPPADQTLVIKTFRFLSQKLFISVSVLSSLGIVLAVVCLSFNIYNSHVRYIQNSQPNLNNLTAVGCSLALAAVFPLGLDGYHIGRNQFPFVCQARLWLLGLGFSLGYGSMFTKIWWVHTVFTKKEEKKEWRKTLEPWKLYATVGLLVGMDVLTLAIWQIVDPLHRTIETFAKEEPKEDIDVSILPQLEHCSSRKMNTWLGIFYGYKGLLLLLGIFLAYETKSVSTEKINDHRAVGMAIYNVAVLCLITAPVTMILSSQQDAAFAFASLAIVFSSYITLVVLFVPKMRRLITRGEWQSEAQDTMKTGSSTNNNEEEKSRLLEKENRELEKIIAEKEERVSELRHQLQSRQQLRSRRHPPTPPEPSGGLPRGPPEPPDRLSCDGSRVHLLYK
# Chain of GABAB receptors (O75899 42-941 partner): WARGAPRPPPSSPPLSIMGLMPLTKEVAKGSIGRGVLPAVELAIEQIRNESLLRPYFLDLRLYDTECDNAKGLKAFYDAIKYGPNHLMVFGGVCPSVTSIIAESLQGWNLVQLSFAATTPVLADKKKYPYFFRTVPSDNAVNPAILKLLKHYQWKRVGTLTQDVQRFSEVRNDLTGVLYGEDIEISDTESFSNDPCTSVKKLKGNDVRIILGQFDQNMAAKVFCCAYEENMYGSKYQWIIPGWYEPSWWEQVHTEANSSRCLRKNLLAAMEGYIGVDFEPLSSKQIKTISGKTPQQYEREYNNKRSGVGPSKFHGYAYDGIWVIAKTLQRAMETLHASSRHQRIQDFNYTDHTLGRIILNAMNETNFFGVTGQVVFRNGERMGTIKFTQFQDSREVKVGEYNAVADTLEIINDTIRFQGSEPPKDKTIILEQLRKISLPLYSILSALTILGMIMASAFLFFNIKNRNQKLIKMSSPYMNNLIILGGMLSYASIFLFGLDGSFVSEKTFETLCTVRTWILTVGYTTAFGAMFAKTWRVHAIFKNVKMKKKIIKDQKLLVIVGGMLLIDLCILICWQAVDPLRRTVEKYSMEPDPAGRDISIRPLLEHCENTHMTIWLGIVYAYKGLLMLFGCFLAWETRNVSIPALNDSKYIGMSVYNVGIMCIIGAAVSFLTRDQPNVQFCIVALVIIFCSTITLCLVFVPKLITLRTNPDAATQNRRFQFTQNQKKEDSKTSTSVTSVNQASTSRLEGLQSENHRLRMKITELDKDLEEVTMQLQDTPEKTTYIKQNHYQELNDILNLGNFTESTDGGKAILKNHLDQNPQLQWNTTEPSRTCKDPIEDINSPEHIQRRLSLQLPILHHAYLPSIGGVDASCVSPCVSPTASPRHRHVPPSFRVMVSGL
compound,measurement,setting,value
"NC(CCCP(=O)(O)O)C(=O)O (stereo not shown) [APV, 2-amino-5-phosphonovaleric acid]",block of NMDA-evoked inward current,"NMDA receptors; 20 μM APV, control dorsal horn neuron",blocked
"NCC1(CC(=O)O)CCCCC1 [GBP, 1-(aminomethyl)cyclohexaneacetic acid]",nociceptive behaviors in the transient phase,[1]; first phase,no effect
same,sustained phase of formalin-induced nociceptive responses,[1]; second phase,potently blocking
same,fetal loss,[2],postimplantation fetal loss
same,interaction with system L-amino acid transporter,[3],interact
same,fetotoxicity,[4],fetotoxic
same,inhibition of Ca^2+ channel activity,[5],< 20%
same,interaction with GABAB receptors,GABAB receptors,does not interact
same,interaction with GABAA receptors,GABAA receptors,does not interact
COc1ccc2c(c[n+](C)c3c4cc5c(cc4ccc23)OCO5)c1OC [chelerythrine],block of the action of PKCM on NMDA-activated currents,NMDA receptors; 6.6 μM chelerythrine in external solution,completely blocked
